Measured values: patent US20260097004A1, “PHARMACEUTICAL COMPOSITION FOR TREATING MAST CELL-MEDIATED INFLAMMATORY DISEASES” (priority 2022, published 2026)

What was measured:
LAD2 mast cells = assay: β-hexosaminidase assay of mast cell degranulation stimulated by SP; format: cell-based; details: SP stimulating experiment, FIG. 1
Method: An experimental method using a β-hexosaminidase assay comprises the following steps: • 1. a PNAG/HEPES buffer/0.1% Triton-100/glycine solution was prepared at a normal temperature; • 2. LAD2 cell was taken out from an incubator at 37° C. and cell count was read, and then an appropriate amount of cell suspension was taken according to experimental cell requirements (estimated based on 5000-10000/well); • 3. the LAD2 cell suspension was centrifuged for 5 min on a centrifuge at 4° C. at […], and then supernatant was discarded; • 4. cells were evenly mixed in the solution after HEPES buffer was added; • 5. the cell suspension was transferred to a 96-well plate, with 80 ul per well; • 6. a to-be-tested drug Atovaquone was added to a corresponding position according to experiment design, the positions of a positive control SP (neuropeptide substance P), a negative control QWF (MRGPRX2 receptor antagonist) and a blank control were reserved, and each drug was administrated for three repetitions; • 7. the cells were co-incubated with the drug for 30 min; • 8. […]
Detection of m Absorbance
• 12. the degranulation percentage of mast cells was calculated.
According to a formula: degranulation percentage-2×absorbance of supernatant plate/(absorbance of supernatant plate+[…]absorbance of cell lysis plate)×100%

LAD2 cells = assay: Intracellular calcium ion flow experiment (calcium imaging, Fluo-3); format: cell-based; details: Atovaquone at different concentrations (0, 1, 10, 100 nM and 1 μM), incubation 30 min; FIG. 3
Method: (§1) An incubation buffer was composed of: 0.5 μl of Fluo-3, 2 μl of Pluronic F-127 and 997.5 μl of CIB (calcium imaging buffer: 125 mM NaCl, 3 mM KCl, 2.5 mM CaCl2, 0.6 mM MgCl2, 10 mM HEPES, 20 mM glucose, 1.2 mM NaHCO3 and 20 mM sucrose, and pH=7.4). Different concentrations (0, 1, 10, 100 nM and 1 μM) of Atovaquone were prepared in the incubation buffer, and an incubation buffer solution without Atovaquone was used as a negative control. LAD2 cells were washed twice with CIB, and then a desired incubation buffer solution was added. After incubation for 30 min, the cells were washed twice with CIB, and then inoculated into a 96-well plate for calcium imaging. For calcium imaging, the cells were magnified 200× and a photo was obtained per second under blue light. After a substance was injected, the cells were confirmed as being responsive if [Ca^2+] rose by at least 50%.

MrgA1 = target: T1, MrgA1 (Mus musculus, UniProt Q91WW5); assay: Calcium ion flow when substance P acts on MrgA1; format: cell-based; details: substance P 10 μM acted on MrgA1; cells with vs without Atovaquone; FIG. 2
T1 sequence (Q91WW5 1-304): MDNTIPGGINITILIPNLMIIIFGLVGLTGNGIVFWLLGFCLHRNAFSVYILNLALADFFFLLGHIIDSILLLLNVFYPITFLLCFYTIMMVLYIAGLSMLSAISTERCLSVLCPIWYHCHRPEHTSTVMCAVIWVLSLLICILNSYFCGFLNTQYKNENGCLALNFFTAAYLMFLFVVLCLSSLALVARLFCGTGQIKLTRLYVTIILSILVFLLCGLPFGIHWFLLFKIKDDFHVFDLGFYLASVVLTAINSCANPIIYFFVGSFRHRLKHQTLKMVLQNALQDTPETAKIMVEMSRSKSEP
Method: as §1
(§2) FIG. 2 is a dynamic observation graph showing a calcium ion flow change when a substance P acted on different receptors, i.e., a schematic representation of the substance P acting on MrgA1, MrgX2 and NKIR (5 nM acted on NKIR, 50 nM acted on MrgX2 and 10 μM acted on MrgA1). This image set was photographed every 5 s from left to right for 120 s. In each group of graphs, a column represented cells with Atovaquone, the next column represented cells without Atovaquone.

NKIR = NKIR (Homo sapiens, UniProt P25103); assay: Calcium ion flow when substance P acts on NKIR; format: cell-based; details: substance P 5 nM acted on NKIR; cells with vs without Atovaquone; FIG. 2
NKIR, sequence (P25103 whole entry): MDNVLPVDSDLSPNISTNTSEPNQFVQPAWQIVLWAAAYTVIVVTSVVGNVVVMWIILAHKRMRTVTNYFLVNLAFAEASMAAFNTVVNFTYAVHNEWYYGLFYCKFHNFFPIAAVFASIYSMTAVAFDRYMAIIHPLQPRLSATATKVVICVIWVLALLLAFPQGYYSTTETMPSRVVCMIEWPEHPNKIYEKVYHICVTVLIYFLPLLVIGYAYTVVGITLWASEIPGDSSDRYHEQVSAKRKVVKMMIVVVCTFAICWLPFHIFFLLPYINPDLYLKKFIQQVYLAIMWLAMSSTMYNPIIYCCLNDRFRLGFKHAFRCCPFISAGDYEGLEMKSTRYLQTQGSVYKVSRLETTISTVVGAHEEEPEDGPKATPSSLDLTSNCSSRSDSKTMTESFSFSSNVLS
Method: as §1, §2

[1] = cited from earlier work

O=C1C(O)=C([C@H]2CC[C@H](c3ccc(Cl)cc3)CC2)C(=O)c2ccccc21 [Atovaquone]
inhibition of LAD2 mast cell degranulation compared with QWF (LAD2 mast cells): far superior to QWF
degranulation of LAD2 mast cells (degranulation percentage) (LAD2 mast cells; cells co-incubated with drug 30 min, then SP 30 min): obviously improved
calcium ion flow (LAD2 cells): reduction in calcium ion flow
effect on MrgA1 mediated calcium ion flow (MrgA1): inferior to that on MrgX2
effect on NKIR mediated calcium ion flow (NKIR): inferior to that on MrgX2
drug dependence ([1]; after long-term use): no significant drug dependence phenomenon
side effects ([1]; users in a population): low side effect characteristics
